Experimental data taken from ChEMBL document CHEMBL5523682, “The formyl peptide receptors FPR1 and FPR2 as targets for inflammatory disorders: recent advances in the development of small-molecule agonists” (Eur J Med Chem, 2024).
Where a SMILES comes first, the peptide text is derived from it. The star is where a group is joined. For = O=C*

Columns and labels:
[1] = biological target: T1, N-formyl peptide receptor 2 (Homo sapiens, UniProt P25090); experiment: Agonist activity at human FPR2 expressed in HL-60 cells assessed as inhibition of WKYMVM-induced calcium mobilization; type: functional, cell-based
T1 sequence (P25090 whole entry): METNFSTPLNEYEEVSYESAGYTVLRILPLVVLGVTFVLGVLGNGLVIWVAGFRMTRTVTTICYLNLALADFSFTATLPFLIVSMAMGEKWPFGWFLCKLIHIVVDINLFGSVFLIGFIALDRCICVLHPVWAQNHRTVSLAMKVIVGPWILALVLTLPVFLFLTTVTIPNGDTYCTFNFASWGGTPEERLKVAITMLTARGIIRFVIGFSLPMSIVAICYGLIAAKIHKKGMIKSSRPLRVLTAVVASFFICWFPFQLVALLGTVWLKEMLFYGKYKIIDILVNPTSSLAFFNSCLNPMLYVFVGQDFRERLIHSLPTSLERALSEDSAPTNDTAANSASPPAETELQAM

[2] = biological target: T1, N-formyl peptide receptor 2; experiment: Agonist activity at FPR2 (unknown origin) in HEK293 cells; type: functional, cell-based
[3] = biological target: T1, N-formyl peptide receptor 2; experiment: Agonist activity at human FPR2 expressed in HL-60 cells assessed as increase in calcium mobilization by FLIPR analysis; type: functional, cell-based
fMet-Leu-Phe receptor [4] = biological target: T2, fMet-Leu-Phe receptor (Homo sapiens, UniProt P21462); experiment: Agonist activity at human FPR1 expressed in HL-60 cells assessed as increase in calcium mobilization by FLIPR analysis; type: functional, cell-based
T2 sequence (P21462 whole entry): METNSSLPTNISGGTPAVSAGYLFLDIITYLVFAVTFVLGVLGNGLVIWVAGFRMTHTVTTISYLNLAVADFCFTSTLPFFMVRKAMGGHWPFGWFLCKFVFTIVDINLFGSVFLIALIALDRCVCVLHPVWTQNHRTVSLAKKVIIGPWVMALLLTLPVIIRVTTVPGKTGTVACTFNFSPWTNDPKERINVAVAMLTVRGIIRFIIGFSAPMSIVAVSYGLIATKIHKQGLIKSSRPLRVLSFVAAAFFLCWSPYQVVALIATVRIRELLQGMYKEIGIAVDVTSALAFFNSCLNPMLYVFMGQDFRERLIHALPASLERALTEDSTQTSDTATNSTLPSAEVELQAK

Homo sapiens = species: Homo sapiens; experiment: Selectivity ratio of EC50 for agonist activity at human FPR1 transfected in CHO cells to EC50 for agonist activity at human FPR2 transfected in CHO cells; type: cell-based
[5] = biological target: T1, N-formyl peptide receptor 2; experiment: Agonist activity at human FPR2 expressed in CHO cells assessed as increase in calcium mobilization by Fluo-4 AM dye based fluorescence assay; type: functional, cell-based
[6] = biological target: T1, N-formyl peptide receptor 2; experiment: Agonist activity at FPR2 (unknown origin) transfected in CHO cells by cAMP assay; type: functional, cell-based
[7] = biological target: T1, N-formyl peptide receptor 2; experiment: Agonist activity at FPR2 (unknown origin) expressed in CHO cells by cAMP assay; type: functional, cell-based
fMet-Leu-Phe receptor [8] = biological target: T2, fMet-Leu-Phe receptor; experiment: Agonist activity at FPR1 (unknown origin) in HEK293 cells; type: functional, cell-based
fMet-Leu-Phe receptor [9] = biological target: T2, fMet-Leu-Phe receptor; experiment: Agonist activity at FPR1 (unknown origin) expressed in CHO cells by cAMP assay; type: functional, cell-based
[10] = biological target: T1, N-formyl peptide receptor 2; experiment: Agonist activity at human FPR2; type: functional
fMet-Leu-Phe receptor [11] = biological target: T2, fMet-Leu-Phe receptor; experiment: Agonist activity at human FPR1 transfected in CHO cells by cAMP assay; type: functional, cell-based

## CC[C@H](C)[C@H](NC(=O)[C@H](CC(N)=O)NC(=O)[C@@H](NC(=O)[C@H](CCSC)NC=O)[C@@H](C)O)C(=O)N[C@@H](CCCNC(=N)N)C(=O)N[C@@H](CCCCN)C(=O)N[C@@H](CO)C(=O)N[C@@H](Cc1cnc[nH]1)C(=O)N1CCC[C@H]1C(=O)N[C@@H](CC(C)C)C(=O)N[C@@H](CCSC)C(=O)N[C@@H](CCCCN)C(=O)N[C@H](C(=O)N[C@H](C(=O)N[C@@H](CC(N)=O)C(=O)O)[C@@H](C)CC)[C@@H](C)CC (For-MTNIRKSHPLMKIIN-OH)
[1]
  EC50: 6.9 nM

## O=C(NCCCCN1CCCCC1)[C@@H]1C2CCC([C@H]1C(=O)Nc1ccc(Br)cc1)C21CC1 (some centres undefined)
[2]
  EC50: 0.07 nM

## CCCc1cn(-c2cccc(OC)c2)c(=O)n(CC(=O)Nc2ccc(Br)cc2)c1=O
[3]
  EC50: 2400 nM
fMet-Leu-Phe receptor [4]
  EC50: 3300 nM

## COc1cc(F)c(-c2c(NC(=O)c3ccc(OC(F)F)cc3)c(=O)n(-c3ccccc3)n2C)c(F)c1
Homo sapiens
  Ratio EC50: 200

## CCC1(C(C)C)NC(=O)N(CC(=O)Nc2ccc(Br)cc2)C1=O (centres undefined)
[5]
  EC50: 0.5 nM

## C[C@@H]1CC(c2ccccc2)=NN(CC(=O)Nc2ccc(Br)cc2)C1=O
[3]
  EC50: 10000 nM
fMet-Leu-Phe receptor [4]
  EC50: 24000 nM

## CCOC(=O)[C@H]1C2CCC([C@H]1C(=O)Nc1ccc(Br)cc1)C21CC1 (some centres undefined)
[6]
  EC50: 1400 nM

## Cc1ccc(NC(=O)N[C@H]2CCCN(c3ccc(-c4ccccc4C(N)=O)cc3)C2=O)cc1
[7]
  EC50: 40 nM

## COc1cc(F)c(-n2c(C3CC(N)C3)cnc2NC(=O)c2ccc(OC(F)F)cc2)c(F)c1 (centres undefined)
fMet-Leu-Phe receptor [8]; hek293
  EC50: 5400 nM
[2]; hek293
  EC50: 4 nM

## COc1ccc(C2(CNC(=O)[C@@H](Cc3c[nH]c4ccccc34)NC(=O)Nc3ccc([N+](=O)[O-])cc3)CCCCC2)nc1
fMet-Leu-Phe receptor [4]
  EC50: 23 nM

## COc1cc(F)c(-c2c(NC(=O)c3ccc(OC(F)F)cc3)c(=O)n(-c3cccc(OC(F)F)c3)n2C)c(F)c1
Homo sapiens
  Ratio EC50: 1

## H-AKKVFKRLEKLFSKIQNDK-OH
[1]
  EC50: 300 nM

## Cc1ccc(C2(NC(=O)[C@@H]3C4CCC([C@H]3C(=O)NCCCCN3CCCC3)C43CC3)CC2)cc1 (some centres undefined)
[2]
  EC50: 4 nM

## COc1cc(F)c([C@H]2CC(=O)NC[C@@H]2NC(=O)Nc2ccc(Cl)cc2)c(F)c1 (racemic)
fMet-Leu-Phe receptor [9]
  EC50: 1000 nM
[7]
  EC50: < 1 nM

## CC/C=C\C[C@@H](O)/C=C/C=C\C[C@@H](O)/C=C/C=C/C=C\[C@@H](O)CCC(=O)O
[10]
  EC50: 1.2 nM

## O=C(Nc1ccc(Cl)cc1F)N[C@@H]1CCN(c2ccc(-c3ccccc3F)c(F)c2F)C1=O
Homo sapiens
  Ratio EC50: 12

## COc1cc(-n2c(=O)c(NC(=O)c3ccc(OC(F)F)cc3)c(-c3c(F)cc(OC)cc3F)n2C)cc(C(F)(F)F)c1
fMet-Leu-Phe receptor [11]
  EC50: > 10 nM
Homo sapiens
  Ratio EC50: > 1300

## COc1ccc([C@@H]2COC(=O)[C@@H]2NC(=O)Nc2ccc(Cl)cc2)cc1 (racemic)
[7]
  EC50: 0.25 nM

## O=C(CN1CCN(c2ccc(Cl)cc2)CC1)Nc1ccc(Br)cc1
[2]
  EC50: 2100 nM

## COc1ccc([C@H]2CN(Cc3cnn(S(C)(=O)=O)c3)CC[C@@H]2NC(=O)Nc2ccc(Cl)cc2)cc1 (racemic)
[7]
  EC50: 0.09 nM

## COc1cc(F)c(-c2c(NC(=O)c3ccc(OC(F)F)cc3)c(=O)n(-c3ccccn3)n2C)c(F)c1
fMet-Leu-Phe receptor [11]
  EC50: > 10 nM
Homo sapiens
  Ratio EC50: > 630

## COCCN1CC[C@H](NC(=O)Nc2ccc(Cl)cc2)[C@@H](c2c(F)cc(OC)cc2F)C1 (racemic)
fMet-Leu-Phe receptor [9]
  EC50: 1000 nM
[7]
  EC50: < 1 nM

## COC(=O)c1cccc(-n2c(=O)c(NC(=O)c3ccc(OC(F)F)cc3)c(-c3c(F)cc(OC)cc3F)n2C)c1
Homo sapiens
  Ratio EC50: 1

## COc1cccc(-c2cc(C#N)c(=O)n(CC(=O)Nc3ccc(Br)cc3)c2C)c1
[3]; hl-60
  EC50: 120 nM
fMet-Leu-Phe receptor [4]; hl-60
  EC50: 1600 nM

## COc1cccc(-c2csc(=O)n2CC(=O)Nc2ccc(Br)cc2)c1
[3]; hl-60
  EC50: 230 nM
fMet-Leu-Phe receptor [4]; hl-60
  EC50: 280 nM

## COc1ccc(-n2c(-c3ccccc3)cnc2NC(=O)c2ccc(OC(F)F)cc2)cc1
fMet-Leu-Phe receptor [8]
  EC50: 38 nM
[2]
  EC50: 3 nM

## O=C(Nc1ccc(Br)nc1)[C@@H]1C2CCC([C@H]1C(=O)OCCC1CCNCC1)C21CC1 (some centres undefined)
[2]
  EC50: 0.4 nM

## COc1ccc(NC(=O)CSc2nc3cc(OC)ccc3[nH]2)cc1
fMet-Leu-Phe receptor [8]
  EC50: 3700 nM
[2]
  EC50: 15 nM
